# From ChEMBL document CHEMBL1158794, “A cytotoxic xanthone dimer from the entomopathogenic fungus Aschersonia sp. BCC 8401” (J Nat Prod, 2005)
# Tests used:
# Plasmodium falciparum = assay: Antiplasmodial activity against multidrug-resistant Plasmodium falciparum K1 by [3H]hypoxanthine uptake; assay type: functional, organism-based
# Vero = assay: Cytotoxicity against african green monkey Vero cells by SRB assay; assay type: cell-based; conditions: Chlorocebus sabaeus
# KB = assay: Cytotoxicity against human KB cells by SRB assay; assay type: functional, cell-based
# [1] = Cytotoxicity against human BC cells by SRB assay; assay type: functional, cell-based
# NCI-H187 = assay: Cytotoxicity against human NCI-H187 cells by SRB assay; assay type: functional, cell-based
compound,measurement,setting,value
CO[C@H]1CC=C2C(=O)c3c(cc(C)c(-c4c(C)cc5c(c4O)C(=O)C4=CC[C@H](OC)[C@@H](O)[C@]4(C)O5)c3O)O[C@@]2(C)[C@@H]1O [ASCHERXANTHONE A],IC50,Plasmodium falciparum,0.2 µg/mL
same,IC50,Vero,0.8 µg/mL
same,IC50,KB,1.7 µg/mL
same,IC50,[1],1.7 µg/mL
same,IC50,NCI-H187,0.16 µg/mL
